Reference: patent US11066444B2, “BMP-2-binding peptide amphiphile nanofibers” (Northwestern University, priority 2014, dated 2021)
Values joined by “and” are separate entries in the source; they are usually repeats but may differ in a detail not shown here. Equal values may be shown once. Residues, ends and D or L forms follow the SMILES beside them. *: point of attachment. Lauroyl = CCCCCCCCCCCC(=O)*

Key:
[1] = Critical micelle concentration by Nile red fluorescent probe assay; format: physicochemical; settings: pH 7.4, Nile red
Experimental: To assess PA nanofiber stability, we measured the critical micelle concentration (CMC) of PAs by Nile red fluorescent probe assay (Boekhoven, A. M. Brizard, P. van Rijn, M. C. A. Stuart, R. Eelkema, J. H. van Esch, Angewandte Chemie (International ed in English) 2011, 50, 12285; herein incorporated by reference in its entirety). At pH 7.4, the supramolecular assembly of the BMP-2-binding PA was detected at above 666 nM (1.5 μg/mL), and that of the diluent PA was detected at above 1 μM (1.2 μg/mL) (FIG. 3). The binding affinities of the PAs to BMP-2 were investigated by surface plasmon resonance (SPR) using hexahistidine-tagged BMP-2 (His-BMP-2) that was immobilized on the surface via nickel (II)-nitrilotriacetic acid (Ni^2+-NTA) chelation (Knecht, D. Ricklin, A. N. Eberle, B. Ernst, J. Mol. Recognit. 2009, 22, 270; herein incorporated by reference in its entirety). As a control, the BMP-2-binding PA (1 μm, pH 7.4) was injected to a bare NTA-dextran chip, and we observed non-specific binding of the PA to the surface (FIG. 4). […]
Critical micelle concentration measurements were performed using Nile Red fluorescence spectroscopy. […] These samples were vortexed, sonicated, and were allowed to equilibrate for 24 hours before fluorescence spectra were obtained. For pH 8.5, PA samples were horn sonicated prior to the addition of Nile Red, and fluorescence spectra were obtained the same day.

[2] = system: C2C12 cells; experiment: Cell cytotoxicity assay (LDH release, live/dead); format: cell-based; settings: 10 μg/mL, 5 h, without BMP-2
Experimental: C2C12 cells were treated with 10 μg/mL heparin or PAs for 5 h (Day 0), and a fraction of the media was collected to measure the presence of lactate dehydrogenase (LDH), a cytosolic enzyme only released upon cell lysis, using CytoTox 96 Non-Radioactive Cytotoxicity Assay (Promega, Madison, Wis.) (n=6). In addition, the remaining cells were stained for viable and dead cells using LIVE/DEAD Viability/Cytoxocity Kit (Invitrogen, Grand Island, N.Y.).

[3] = system: C2C12 cells; experiment: Alkaline phosphatase (ALP) stain, BMP-2-induced osteoblast differentiation; format: cell-based; settings: 50 ng/mL BMP-2, PA or heparin 0.1-10 μg/mL, 3 days
Experimental: (§1) C2C12 pre-myoblasts were maintained and treated with BMP-2 as depicted in FIG. 5A. C2C12 cells were seeded at 2×10^4 cells/cm2 in 24-well plates in growth media (DMEM with 10% heat-inactivated FBS and 100 U/mL penicillin/streptomycin, P/S) 1 day before treatment. On the following day (Day 0), growth media was replaced with 900 μL maintenance media (growth media with 2.5% FBS) and 100 μL treatment media containing BMP-2 with heparin or PAs. Preparation of the treatment media was as follows: 2.5 μL of BMP-2 stock ([…]) was mixed with 5 μL of heparin or PA stock solutions (0.02, 0.2, or 2 mg/mL), incubated for 5 min on ice, then mixed with DMEM (100 U/mL P/S) to a final volume of 100 μL, followed by 5 min incubation on ice. For treatments with BMP-2 only, the treatment media was prepared according to the method described except without heparin or PAs. Final working concentrations were 50 ng/mL BMP-2 and a range of 0.1, 1, to 10 μg/mL heparin or PAs.
The presence of ALP was stained as a marker for osteoblast differentiation on day 3 by enzymatic labeling described by Mason and Woolston (herein incorporated by reference in its entirety). C2C12 cell layer was fixed with 4% paraformaldehyde (PFA) for 30 s, washed with PBS three times, and stained for 1 h with Naphthol AS-MX phosphate (Sigma-Aldrich, St. Louis, Mo.) and Fast Blue BB salt (Sigma-Aldrich) in 0.1M Tris-HCl at pH 8.2, followed by washing with PBS.

[4] = system: C2C12 cells; experiment: Real-time PCR of osteogenic genes (Runx2, Osx, Ocn); format: cell-based; settings: 50 ng/mL BMP-2, 10 μg/mL, 2 days
Experimental: C2C12 cells were treated with 50 ng/ml BMP-2 in the presence of 10 μg/mL heparin or PAs until Day 2, and the osteogenic gene expression levels were determined by real-time PCR as described by Zhao et al. (n=4, in triplicate experiments). Briefly, total RNAs were isolated from cells using TRIzol (Invitrogen) and reverse-transcribed using iScript Reverse Transcription Supermix (Bio-Rad, Des Plaines, Ill.). PCR amplification was analyzed with iQ5 Real-Time PCR Detection System (Bio-Rad) using iQ SYBR Green Supermix (Bio-Rad) and the following primers: Runx2 types II & III (Runx2), 5′-[…]-3′(SEQ ID NO:5) and 5′-CCAAAAGAAGCTTTGCTG-3′ (SEQ ID NO:6); Osterix (Osx), 5′-[…]-3′(SEQ ID NO:7) and 5′-[…]-3′(SEQ ID NO:8); Osteocalcin (Ocn), 5′-[…]-3′(SEQ ID NO:9) and 5′-[…]-3′(SEQ ID NO:10); and Glyceraldehyde-3-phosphate dehydrogenase (GAPDH), 5′-[…]-3′(SEQ ID NO:11) and 5′-[…]-3′(SEQ ID NO:12) (IDT, Coralville, Iowa). For PCR amplification, cDNA was denatured at 94° C. for 5 min, then underwent 40 repeated cycles at 94° C. for 45 s, annealing at 55° C. for 1 min, and extension at 68° C. for 1 min, followed by 79 repeated cycles at 55° C. for 30 s for generation of a melting curve. Expression values of Runx2 II, Osx, and Ocn were normalized to the respective GAPDH levels, and all treatments were normalized to control (BMP-2 only) treatment in order to represent relative fold increase.

[5] = system: C2C12 cells; experiment: Alkaline phosphatase (ALP) activity assay, BMP-2-induced osteoblast differentiation; format: cell-based; settings: 10 μg/mL, without BMP-2, 4 days
Experimental: as §1, with “Final working concentrations were 50 ng/mL BMP-2 and a range of 0.1, 1, to 10 μg/mL heparin or PAs.” left out
ALP activity from C2C12 cell layer was measured using QUANTI-Blue ALP substrate (InvivoGen, San Diego, Calif.). […] The plate was incubated at 37° C. for 18 h and absorbance was measured at 630 nm on SpectraMax M5 Microplate Reader (Molecular Devices, Sunnyvale, Calif.). […] The absorbance values from QUANTI-Blue ALP assay was normalized by the amount of dsDNA in each sample, and the resulting values from heparin and PA treatments were normalized to control (BMP-2 only) to represent the relative fold increase (n=3, in triplicate experiments).

Compound | critical micelle concentration (supramolecular assembly detected at above) [1] | cytotoxicity [2] | number of ALP-positive cells [3] | osteoblastic differentiation by mRNA levels relative to BMP-2 alone [4] | ALP expression without BMP-2 [5]
CCCCCCCCCCCC(=O)NCCCC[C@H](NC(=O)[C@@H](NC(=O)[C@@H](NC(=O)[C@@H](NC(=O)[C@H](C)NC(=O)[C@H](C)NC(=O)[C@H](C)NC(=O)[C@H](CCC(=O)O)NC(=O)[C@H](CCC(=O)O)NC(=O)[C@H](CCC(=O)O)NC(=O)[C@H](CO)NC(=O)CNC(=O)CNC(=O)CNC(=O)[C@H](Cc1ccc(O)cc1)NC(=O)[C@@H]1CCCN1C(=O)[C@@H](NC(=O)[C@H](Cc1c[nH]cn1)NC(=O)[C@@H]1CCCN1C(=O)[C@H](CO)NC(=O)[C@@H](N)[C@@H](C)O)C(C)C)C(C)C)C(C)C)C(C)C)C(N)=O [BMP-2-binding PA, C12-(K)V3A3E3-SGGGYPVHPST-NH2] (H-TSPHVPYGGGSEEEAAAVVVK(Lauroyl)-NH2; N-terminus and C-terminus assumed) | above 666 nM and > 1.5 μg/mL | did not induce cytotoxicity | slight increase in the number of ALP-positive cells | enhanced osteoblastic differentiation | –
heparin sodium [reference compound] | – | did not induce cytotoxicity | directly proportional association of the number of ALP-positive cells with heparin concentrations up to 10 μg/mL | enhanced osteoblastic differentiation | did not promote ALP expression
CCCCCCCCCCCCCCCC(=O)N[C@H](C(=O)N[C@H](C(=O)N[C@H](C(=O)N[C@@H](C)C(=O)N[C@@H](C)C(=O)N[C@@H](C)C(=O)N[C@@H](CCC(=O)O)C(=O)N[C@@H](CCC(=O)O)C(=O)N[C@@H](CCC(=O)O)C(=O)O)C(C)C)C(C)C)C(C)C [diluent PA, C16-V3A3E3-COOH] (HELM PEPTIDE1{[CCCCCCCCCCCCCCCC(=O)[*:2]].V.V.V.A.A.A.E.E.E}$$$$V2.0) | above 1 μM and > 1.2 μg/mL | did not induce cytotoxicity | increased number of ALP-positive cells | enhanced osteoblastic differentiation | –
